Legend:
[1] = test system: Thymidine Phosphorylase (TP) expression in MCF-7 breast carcinoma cells; details: especially with MCF-7 breast carcinoma cells; abstract, French Pharmacology Society Conference 2008; cited from earlier work
[2] = test system: patients with metastatic breast cancer; assay: Phase I/II study: tolerance and treatment characteristics
Experimental: Part 2: the antitumor activity and the characterization of the tolerance profile were determined at the recommended dose.
The capecitabine is administered orally twice a day, in the morning and evening, from day D1 to day D14 (from the 1st to the 14th day of the cycle).
The doses could be reduced and the treatment cycle duration could be extended in the case of a severe adverse event (AE). The treatment was continued until disease progression, the presence of an unacceptable AE or the withdrawal of patient consent.
A physical examination, complete differential leukocyte and blood counts, and blood chemistry analyses were carried out before the recruitment of the patients and regularly during treatment. Tumor evaluation by radiology was carried out at recruitment of the patients and every 6 weeks. The responses were confirmed by 2 evaluations at least 4 weeks apart. Supplementary data were collected every 6 weeks until the date the study was stopped.

[3] = Phase I/II study: pharmacokinetics and drug interaction study; details: patients, part 1; parent and metabolite
[4] = test system: taxane-resistant metastatic breast cancer; details: 1-h i.v. infusion every 3 weeks; Ann. Oncol. 2008, 19(9), 1547-1552; cited from earlier work
[5] = test system: patients with metastatic breast cancer previously treated with anthracyclines and taxanes; details: cabazitaxel (D1) in combination with capecitabine (twice a day, D1-14)
Text: The main inclusion criteria were an age of 18 or older, a histologically proven metastatic or locally recurrent breast cancer that was inoperable, an Eastern Cooperative Oncology Group performance status (ECOG PS) of 0 to 2, prior exposure to taxanes and to anthracyclines, and adequate hematological, renal and hepatic function.
The main exclusion criteria were a simultaneous cancer, more than one chemotherapy treatment for metastatic cancer, prior exposure to capecitabine, or uncontrolled significant comorbid conditions.
Thirty-three patients with metastatic breast cancer were included in the study, all previously treated with anthracyclines and taxanes: 15 patients for part 1 and 18 for part 2.
The dose-limiting toxicities (DLTs), i.e. the list of events to be monitored, which make it possible to guide the dose escalation, were first of all predefined in the protocol in accordance with the NCI-CTCAE classification scale, version 3.
The increase in doses was studied in groups of three patients as long as no DLT was observed.

[6] = DL2: 20 mg/m^2 cabazitaxel + 2 × 1000 mg/m^2/day capecitabine for 14 days, 21 patients
[7] = Total, all dose levels, 33 patients

Compound | induction of TP expression [1] | Number of patients with dose reduction [2, 6] | Number of patients with dose reduction [2, 7] | pharmacokinetics affected by coadministration of the other agent [3] | efficacy in taxane-resistant metastatic breast cancer [4] | maximal administered dose (MAD) [5] [mg/m^2] | recommended dose (RD) ([5]; highest dose at which less than 33% of patients exhibited a DLT) [mg/m^2]
4α-acetoxy-2α-benzoyloxy-5β,20-epoxy-1β-hydroxy-β,10β-dimethoxy-9-oxotax-11-en-13α-yl (2R,3S)-3-tert-butoxycarbonylamino-2-hydroxy-3-phenylpropionate [cabazitaxel] | induces TP expression | 4 | 10 | do not appear to be affected | can be effective | – | –
CCCCCOC(=O)Nc1nc(=O)n([C@@H]2O[C@H](C)[C@@H](O)[C@H]2O)cc1F [capecitabine, 5′-deoxy-5-fluoro-N4-(pentyloxycarbonyl)cytidine N-[1-(5-deoxy-beta-D-ribofuranosyl)-5-fluoro-2-oxo-1,2-dihydropyrimidin-4-yl]carbamic acid pentyl ester] | – | 3 | 7 | vice versa | – | 1000 | 1000
